Data published in ChEMBL document CHEMBL3232777, “QSAR models for HEPT derivates as NNRTI inhibitors based on Monte Carlo method” (Eur J Med Chem, 2014).

What follows are compounds tested on Human immunodeficiency virus 1 (assay: Antiviral activity against HIV1 3B infected in human MT4 cells assessed as protection from cytopathic effect). Details: Human immunodeficiency virus 1, 3B.
Format: functional, organism-based
For `Cc1c(Sc2ccc(Cl)cc2)n(COCCO)c(=O)[nH]c1=O`, the IC50 was 251 µM. With `Cc1c(Sc2cccc(CO)c2)n(COCCO)c(=O)[nH]c1=O` the IC50 was 295 µM. With `Cc1c(Sc2cc(Cl)cc(Cl)c2)n(COCCO)c(=O)[nH]c1=O` the IC50 was 1.29 µM. `Cc1c(Sc2ccc(C#N)cc2)n(COCCO)c(=O)[nH]c1=O` was tested, and the IC50 was 251 µM. `Cc1c(Sc2ccccc2Cl)n(COCCO)c(=O)[nH]c1=O` showed an IC50 of 129 µM. Work on `CC(=O)c1ccc(Sc2c(C)c(=O)[nH]c(=O)n2COCCO)cc1` yielded an IC50 of 110 µM. `Cc1c(Sc2ccc([N+](=O)[O-])cc2)n(COCCO)c(=O)[nH]c1=O` was tested, and the IC50 was 191 µM. `O=c1[nH]c(=O)n(COCCO)c(Sc2ccccc2)c1Sc1ccccc1` was tested, and the IC50 was 20.9 µM. With `COc1ccc(Sc2c(C)c(=O)[nH]c(=O)n2COCCO)cc1` the IC50 was 251 µM. Work on `CC(=O)c1cccc(Sc2c(C)c(=O)[nH]c(=O)n2COCCO)c1` yielded an IC50 of 7.24 µM. With `O=C(Nc1ccccc1)c1c(Sc2ccccc2)n(COCCO)c(=O)[nH]c1=O` the IC50 was 18.2 µM. Compound `Cc1c(Sc2ccc(O)cc2)n(COCCO)c(=O)[nH]c1=O` has an IC50 of 275 µM. `Cc1c(Sc2ccc(F)cc2)n(COCCO)c(=O)[nH]c1=O` gave an IC50 of 251 µM. `O=c1[nH]c(=O)n(COCCO)c(Sc2ccccc2)c1C#Cc1ccccc1` showed an IC50 of 3.39 µM. `C=Cc1c(Sc2ccccc2)n(COCCO)c(=O)[nH]c1=O` was tested, and the IC50 was 2.04 µM. With `Cc1c(Sc2cccc(C(=O)O)c2)n(COCCO)c(=O)[nH]c1=O` the IC50 was 355 µM. Work on `O=c1[nH]c(=O)n(COCCO)c(Sc2ccccc2)c1C=C(c1ccccc1)c1ccccc1` yielded an IC50 of 0.851 µM. In the case of `C#Cc1c(Sc2ccccc2)n(COCCO)c(=O)[nH]c1=O`, the IC50 is reported as 18.2 µM. Work on `O=c1[nH]c(=O)n(COCCO)c(Sc2ccccc2)c1I` yielded an IC50 of 3.63 µM. With `O=c1[nH]c(=O)n(COCCO)c(Sc2ccccc2)c1/C=C/c1ccccc1` the IC50 was 6.03 µM. With `CCc1c(Sc2ccccc2)n(COCC2CCCCC2)c(=O)[nH]c1=O` the IC50 was 0.447 µM. For `CCc1c(Sc2ccccc2)n(COCCc2ccccc2)c(=O)[nH]c1=O`, the IC50 was 0.0955 µM. Compound `CC(C)c1c(Sc2ccccc2)n(COCc2ccccc2)c(=S)[nH]c1=O` has an IC50 of 0.00724 µM. Compound `CCOCn1c(Sc2ccccc2)c(C(C)C)c(=O)[nH]c1=S` has an IC50 of 0.0129 µM. For `CCc1c(Sc2ccccc2)n(COCc2ccccc2)c(=S)[nH]c1=O`, the IC50 was 0.00813 µM. Compound `CCc1c(Sc2ccccc2)n(COCCc2ccccc2)c(=S)[nH]c1=O` has an IC50 of 0.0912 µM. `CCc1c(Sc2ccccc2)n(COCc2ccc(C)cc2)c(=S)[nH]c1=O` showed an IC50 of 0.0776 µM. With `CCc1c(Sc2cc(C)cc(C)c2)n(COCc2ccccc2)c(=S)[nH]c1=O` the IC50 was 0.00724 µM. Compound `CCOCn1c(Sc2cc(C)cc(C)c2)c(CC)c(=O)[nH]c1=O` has an IC50 of 0.00575 µM. `CCc1c(Sc2ccccc2)n(COCC2CCCCC2)c(=S)[nH]c1=O` showed an IC50 of 0.355 µM. Compound `CCCCOCn1c(Sc2ccccc2)c(C)c(=O)[nH]c1=O` has an IC50 of 4.68 µM. Work on `CCCCCOCCOCn1c(Sc2ccccc2)c(C)c(=O)[nH]c1=O` yielded an IC50 of 34.7 µM. In the case of `CCc1c(Sc2ccccc2)n(COC(C)C)c(=O)[nH]c1=O`, the IC50 is reported as 0.339 µM. Work on `Cc1cccc(Sc2c(C)c(=O)[nH]c(=O)n2COCCO)c1` yielded an IC50 of 2.57 µM. Work on `Cc1c(Sc2cccc(I)c2)n(COCCO)c(=O)[nH]c1=O` yielded an IC50 of 10 µM. Compound `Cc1ccc(Sc2c(C)c(=O)[nH]c(=O)n2COCCO)cc1` has an IC50 of 219 µM. Work on `COC(=O)c1cccc(Sc2c(C)c(=O)[nH]c(=O)n2COCCO)c1` yielded an IC50 of 7.94 µM. Compound `CCc1c(Sc2cc(C)cc(C)c2)n(COCCO)c(=S)[nH]c1=O` has an IC50 of 0.00776 µM. With `Cc1c(Sc2cccc([N+](=O)[O-])c2)n(COCCO)c(=O)[nH]c1=O` the IC50 was 33.9 µM. With `CCCc1c(Sc2ccccc2)n(COCCO)c(=O)[nH]c1=O` the IC50 was 3.39 µM. In the case of `CCc1c(Sc2cc(Cl)cc(Cl)c2)n(COCCO)c(=S)[nH]c1=O`, the IC50 is reported as 0.0427 µM. In the case of `COc1cccc(Sc2c(C)c(=O)[nH]c(=O)n2COCCO)c1`, the IC50 is reported as 21.9 µM. `Cc1cc(C)cc(Sc2c(C(C)C)c(=O)[nH]c(=S)n2COCCO)c1` gave an IC50 of 0.00501 µM. With `Cc1c(Sc2ccccc2[N+](=O)[O-])n(COCCO)c(=O)[nH]c1=O` the IC50 was 141 µM. `C=CCc1c(Sc2ccccc2)n(COCCO)c(=O)[nH]c1=O` gave an IC50 of 2.51 µM. `CC(C)c1c(Sc2ccccc2)n(COCCO)c(=O)[nH]c1=O` was tested, and the IC50 was 0.0631 µM. Compound `Cc1c(Sc2cccc(C(C)(C)C)c2)n(COCCO)c(=O)[nH]c1=O` has an IC50 of 12 µM. `CC(C)c1c(Sc2ccccc2)n(COCCO)c(=S)[nH]c1=O` showed an IC50 of 0.0589 µM. `Cc1c(Sc2cccc(F)c2)n(COCCO)c(=O)[nH]c1=O` gave an IC50 of 3.31 µM. Work on `COc1ccccc1Sc1c(C)c(=O)[nH]c(=O)n1COCCO` yielded an IC50 of 19.1 µM. `CCc1c(Sc2ccccc2)n(COCCO)c(=O)[nH]c1=O` showed an IC50 of 0.12 µM. Compound `Cc1cc(C)cc(Sc2c(C)c(=O)[nH]c(=S)n2COCCO)c1` has an IC50 of 0.219 µM. Work on `Cc1c(Sc2cccc(C#N)c2)n(COCCO)c(=O)[nH]c1=O` yielded an IC50 of 10 µM. Compound `Cc1c(Sc2cccc(O)c2)n(COCCO)c(=O)[nH]c1=O` has an IC50 of 81.3 µM. `Cc1c(Sc2cccc(Br)c2)n(COCCO)c(=O)[nH]c1=O` showed an IC50 of 5.75 µM. Compound `Cc1ccccc1Sc1c(C)c(=O)[nH]c(=O)n1COCCO` has an IC50 of 70.8 µM. Compound `Cc1c(Sc2ccccc2)n(COCCF)c(=O)[nH]c1=O` has an IC50 of 1.1 µM. In the case of `CCc1c(Sc2ccccc2)n(COCc2ccccc2)c(=O)[nH]c1=O`, the IC50 is reported as 0.00589 µM. `CCCCn1c(Sc2ccccc2)c(C)c(=O)[nH]c1=O` showed an IC50 of 1.2 µM. Work on `Cc1c(O)nc(O)nc1Sc1ccccc1` yielded an IC50 of 251 µM. `Cc1c(Sc2ccccc2)n(C)c(=O)[nH]c1=O` showed an IC50 of 151 µM. With `CCc1c(Sc2cc(C)cc(C)c2)n(COCc2ccccc2)c(=O)[nH]c1=O` the IC50 was 0.00282 µM. In the case of `O=c1[nH]c(=O)n(COCCO)c(Sc2ccccc2)c1Cl`, the IC50 is reported as 30.2 µM. `O=c1[nH]c(=O)n(COCCO)c(Sc2ccccc2)c1Br` showed an IC50 of 20 µM. With `CCc1c(Sc2ccccc2)n(COC(C)C)c(=S)[nH]c1=O` the IC50 was 0.219 µM. For `CCc1c(Sc2ccccc2)n(COCCO)c(=S)[nH]c1=O`, the IC50 was 0.11 µM. `CC(=O)OCCOCn1c(Sc2ccccc2)c(C)c(=O)[nH]c1=O` gave an IC50 of 6.76 µM. `Cc1c(Sc2ccccc2)n(COCCOC(=O)c2ccccc2)c(=O)[nH]c1=O` was tested, and the IC50 was 7.59 µM. Compound `Cc1c(Sc2cccc(N)c2)n(COCCO)c(=O)[nH]c1=O` has an IC50 of 251 µM. With `Cc1c(Sc2ccccc2)n(COCCO)c(=S)[nH]c1=O` the IC50 was 0.977 µM. Work on `COC(=O)c1c(Sc2ccccc2)n(COCCO)c(=O)[nH]c1=O` yielded an IC50 of 6.61 µM. `Cc1c(Sc2cccc(C(N)=O)c2)n(COCCO)c(=O)[nH]c1=O` showed an IC50 of 309 µM. For `CC(C)C(=O)c1c(Sc2ccccc2)n(COCCO)c(=O)[nH]c1=O`, the IC50 was 12 µM. Work on `CCOCn1c(Sc2ccccc2)c(C2CC2)c(=O)[nH]c1=S` yielded an IC50 of 0.0955 µM. Work on `CCc1c(Sc2ccccc2)n(COCc2ccc(Cl)cc2)c(=S)[nH]c1=O` yielded an IC50 of 0.012 µM. With `CCc1c(Sc2ccccc2)n(COC2CCCCC2)c(=S)[nH]c1=O` the IC50 was 1.62 µM. `CCOCn1c(Sc2cc(Cl)cc(Cl)c2)c(CC)c(=O)[nH]c1=O` was tested, and the IC50 was 0.00741 µM. `CCOCn1c(Sc2cc(C)cc(C)c2)c(CC)c(=O)[nH]c1=S` was tested, and the IC50 was 0.00501 µM. With `CCOCn1c(Sc2cc(Cl)cc(Cl)c2)c(CC)c(=O)[nH]c1=S` the IC50 was 0.0129 µM. `CCc1c(Sc2ccccc2)n(COC2CCCCC2)c(=O)[nH]c1=O` gave an IC50 of 3.98 µM. `Cc1c(Sc2ccccc2)n(COCCOCc2ccccc2)c(=O)[nH]c1=O` gave an IC50 of 20 µM. `Cc1c(Sc2ccccc2)n(COCCCl)c(=O)[nH]c1=O` gave an IC50 of 1.51 µM. `CCOCn1c(Sc2ccccc2)c(CC)c(=O)[nH]c1=O` gave an IC50 of 0.0191 µM. Work on `Cc1c(Sc2ccccc2)n(COCc2ccccc2)c(=O)[nH]c1=O` yielded an IC50 of 0.0871 µM. In the case of `CCOCn1c(Sc2ccccc2)c(C)c(=O)[nH]c1=O`, the IC50 is reported as 0.331 µM. `COCCOCn1c(Sc2ccccc2)c(C)c(=O)[nH]c1=O` was tested, and the IC50 was 8.71 µM. `Cc1c(Sc2ccccc2)n(COCCN=[N+]=[N-])c(=O)[nH]c1=O` was tested, and the IC50 was 5.75 µM. Work on `CCOCn1c(Sc2ccccc2)c(C(C)C)c(=O)[nH]c1=O` yielded an IC50 of 0.0102 µM. In the case of `CCn1c(Sc2ccccc2)c(C)c(=O)[nH]c1=O`, the IC50 is reported as 2.19 µM. Work on `CC(C)c1c(Sc2ccccc2)n(COCc2ccccc2)c(=O)[nH]c1=O` yielded an IC50 of 0.00309 µM. For `COCn1c(Sc2ccccc2)c(C)c(=O)[nH]c1=O`, the IC50 was 2.09 µM. With `CCOCn1c(Sc2ccccc2)c(C2CC2)c(=O)[nH]c1=O` the IC50 was 0.1 µM. In the case of `CCCOCn1c(Sc2ccccc2)c(C)c(=O)[nH]c1=O`, the IC50 is reported as 3.31 µM. For `CCCc1c(Sc2ccccc2)n(COCCO)c(=S)[nH]c1=O`, the IC50 was 10 µM. Compound `CCc1cccc(Sc2c(C)c(=O)[nH]c(=O)n2COCCO)c1` has an IC50 of 2.69 µM. `Cc1c(Sc2cccc(Cl)c2)n(COCCO)c(=O)[nH]c1=O` was tested, and the IC50 was 12.9 µM. In the case of `O=C(c1ccccc1)c1c(Sc2ccccc2)n(COCCO)c(=O)[nH]c1=O`, the IC50 is reported as 12.9 µM. `O=c1[nH]c(=O)n(COCCO)c(Sc2ccccc2)c1F` was tested, and the IC50 was 100 µM. `CCOCn1c(Sc2ccccc2)c(CC)c(=O)[nH]c1=S` showed an IC50 of 0.0263 µM. `CCc1c(Sc2cc(Cl)cc(Cl)c2)n(COCCO)c(=O)[nH]c1=O` showed an IC50 of 0.0141 µM. `Cc1c(Sc2cccc(C(F)(F)F)c2)n(COCCO)c(=O)[nH]c1=O` gave an IC50 of 44.7 µM. Compound `O=c1[nH]c(=O)n(COCCO)c(Sc2ccccc2)c1Cc1ccccc1` has an IC50 of 42.7 µM. For `CC#Cc1c(Sc2ccccc2)n(COCCO)c(=O)[nH]c1=O`, the IC50 was 19.1 µM. With `Cc1c(Sc2ccccc2)n(COCCO)c(=O)[nH]c1=O` [HEPT] the IC50 was 7.08 µM.
